Measurements from US9975852B2, “Quinoline sulfonyl derivatives and uses thereof” (Health Sciences North Research Institute, priority 2013, dated 2018).

Columns and labels:
Jurkat = assay: SRB antiproliferative assay, Jurkat; assay type: cell-based; details: Homo sapiens
Description: Antiproliferative effects were determined by a sulforhodamine B (SRB) based protocol. For a typical screening experiment, 5,000-10,000 cells were inoculated into 100 μl medium per well of a 96-well microtiter plate as described previously. Briefly, after the inoculation, the microtiter plate was incubated at 37° C., 5% CO2, 95% air and 100% relative humidity for 24 h, prior to addition of experimental drugs. Some of the sample wells were fixed with 25 μl of 50% trichloroacetic acid (TCA) as a control of the cell population for each cell line at the time of drug addition (Tz). An aliquot of the frozen stock was thawed and diluted to the desired final maximum test-concentration with complete medium. […] The cells “stained” with SRB were solubilized with 10 mM trizma base, and the absorbance was read on an automated plate reader at a wavelength of 515-564 nm. The relative growth rate (%) was calculated for each of the compound concentrations according to the following formula: (Ti−Tz)/(C−Tz)×100 In the formula, time zero (Tz), control growth (C), and OD for different concentration of tested compounds (Ti). […] Values were calculated for each of these parameters if the level of activity was reached. However, if the effect was not reached or was exceeded, the value for that parameter was expressed as greater or less than the maximum or minimum concentration tested. […]

[1] = system: MDA-MB231 human metastatic breast cancer cells; assay: Xenograft antitumor activity, ATH490 mice engrafted with MDA-MB231; assay type: in vivo
Description: Five-week-old female CD-1 and ATH490 (strain code 490) athymic nude mice were purchased from Charles River (Quebec, Canada). The MDA-MB231 human metastatic breast cancer cells were obtained from the American Tissue Culture Collection (ATCC, Manassas, Va., USA). Cells were maintained under humidified condition at 37° C. and 5% CO2 in DMEM high glucose medium (ATCC) supplemented with 10% fetal bovine serum and antibiotics. All animal experiments, including animal handling, care, treatment and endpoint determination, were reviewed and approved by the Laurentian University Animal Care Committee (ACC) and carried out at Laurentian University Animal Care facility (Sudbury, Ontario, Canada)
To determine anti-tumor activity of VR-23 in an animal model, a xenograft model of human breast cancer cells in athymic nude mice was established. Exponentially growing MDA-MB231 cells were harvested and counted for inoculation into mice. Each mouse was subcutaneously injected at the flank with 10×10^6 cells in 0.2 ml ice cold 1×PBS. When tumor size reached 4-5 mm in diameter (n=4-5 per group), mice were randomly assigned into five (or more) groups.

MDA-MB468 = assay: SRB antiproliferative assay, MDA-MB468; assay type: cell-based, human; details: Homo sapiens
Description: (§1) Antiproliferative effects were determined by a sulforhodamine B (SRB) based protocol. For a typical screening experiment, 5,000-10,000 cells were inoculated into 100 μl medium per well of a 96-well microtiter plate as described previously. […] Some of the sample wells were fixed with 25 μl of 50% trichloroacetic acid (TCA) as a control of the cell population for each cell line at the time of drug addition (Tz). An aliquot of the frozen stock was thawed and diluted to the desired final maximum test-concentration with complete medium. Two to ten-fold serial dilutions were made to provide a total of seven drug concentrations (and a control [C]). Following addition of drugs, the culture plate was incubated for additional 48 h. Cells were fixed in situ by slowly adding 25 μl of ice-cold 50% (w/v) TCA (final concentration, 10% TCA), and were then incubated for 60 min at 4° C. The supernatant was discarded, and the plate was washed five times with tap water, followed by air-dry. 50 μl of SRB solution at 0.4% (w/v) in 1% acetic acid was added to each well, and the plate was incubated for >30 min at room temperature. Unbound SRB was removed by five washes with tap water, followed by air-drying. […] The relative growth rate (%) was calculated for each of the compound concentrations according to the following formula: (Ti−Tz)/(C−Tz)×100 In the formula, time zero (Tz), control growth (C), and OD for different concentration of tested compounds (Ti). The GI50 for each compound was obtained from a non-linear Sigmoidal dose-response (variable slope) curve which is fitted by GraphPad Prism™ v.4.03 software. Values were calculated for each of these parameters if the level of activity was reached. However, if the effect was not reached or was exceeded, the value for that parameter was expressed as greater or less than the maximum or minimum concentration tested. Flow Cytometry

Jurkat lymphoma cells = assay: Flow cytometry, apoptosis of Jurkat lymphoma cells; assay type: cell-based; details: 0.75 μM VR-23, 48 hours
Description: Asynchronously growing Jurkat lymphoma cells were incubated for 48 hours in the absence (sham control) or presence of Bortezomib alone or in combination with VR-23.

[2] = Body weight of ATH490 mice; assay type: in vivo; details: VR-23 30 mg/kg
Description: D0-D25/D29 denotes day 0 to days 25/29 post-drug treatment. […] The body weights of ATH490 mice are normalized on the basis that those of day 0 are 100%.

MCF7 = assay: SRB antiproliferative assay, MCF7; assay type: cell-based, human; details: Homo sapiens
Description: as §1

SMILES: O=[N+]([O-])c1ccc(S(=O)(=O)N2CCN(c3ccnc4cc(Cl)ccc34)CC2)c([N+](=O)[O-])c1 [Compound 1, 7-Chloro-4-(4-(2,4-dinitrophenylsulfonyl)piperazin-1-yl)quinoline]
- IC50 (Jurkat): 800 ± 100 nM
- Decrease of tumor size compared to sham-treated control ([1]; VR-23 30 mg/kg twice per week i.p., three weeks): 4.6 fold
- Tumor size D0 ([1]; day 0, dosing as in Table IX B): 46.51 ± 2.82
- Tumor size D7 ([1]; day 7 post-treatment, dosing as in Table IX B): 52.74 ± 5.64
- Tumor size D15 ([1]; day 15 post-treatment, dosing as in Table IX B): 48.29 ± 17.30
- Tumor size D18 ([1]; day 18 post-treatment, dosing as in Table IX B): 42.41 ± 17.95
- Tumor size D22 ([1]; day 22 post-treatment, dosing as in Table IX B): 65.88 ± 25.92
- VEGF immunostaining of tumor ([1]; four weeks treatment): did not show any notable amount of VEGF
- Angiogenesis and spread of tumor cells ([1]; four weeks treatment, H & E): inhibited angiogenesis and the spread of tumor cells to surrounding tissue/organs
- Tumor cell proliferation (Ki-67, mitotic index) ([1]; tumor samples 15 and 29 days post-treatment): inhibited tumor cell proliferation
- IC50 (MDA-MB468; MDA-MB-468): 700 ± 100 nM
- GI50 (MDA-MB468; MDA-MB-468, 48 h): 700 ± 100 nM
- Cell killing by apoptosis (Jurkat lymphoma cells): neither 6 nM of Bortezomib (FIG. 4, ii) nor 0.75 μM of VR-23 (FIG. 4, iv) induced substantial cell killing by apoptosis
- Toxic effect by body weight [2]: did not show any notable toxic effect
- GI50 (MCF7; MCF7, 48 h, read-out: GI50 MCF7): 2320 ± 800 nM
- IC50 (MCF7; MCF7, SRB): 2300 ± 800 nM
